# From ChEMBL document CHEMBL1134092, “alpha-Keto heterocycle inhibitors of fatty acid amide hydrolase: carbonyl group modification and alpha-substitution” (Bioorg Med Chem Lett, 2001)
# Target: T1, Fatty-acid amide hydrolase 1 (Rattus norvegicus, UniProt P97612)
# T1 sequence (P97612 whole entry): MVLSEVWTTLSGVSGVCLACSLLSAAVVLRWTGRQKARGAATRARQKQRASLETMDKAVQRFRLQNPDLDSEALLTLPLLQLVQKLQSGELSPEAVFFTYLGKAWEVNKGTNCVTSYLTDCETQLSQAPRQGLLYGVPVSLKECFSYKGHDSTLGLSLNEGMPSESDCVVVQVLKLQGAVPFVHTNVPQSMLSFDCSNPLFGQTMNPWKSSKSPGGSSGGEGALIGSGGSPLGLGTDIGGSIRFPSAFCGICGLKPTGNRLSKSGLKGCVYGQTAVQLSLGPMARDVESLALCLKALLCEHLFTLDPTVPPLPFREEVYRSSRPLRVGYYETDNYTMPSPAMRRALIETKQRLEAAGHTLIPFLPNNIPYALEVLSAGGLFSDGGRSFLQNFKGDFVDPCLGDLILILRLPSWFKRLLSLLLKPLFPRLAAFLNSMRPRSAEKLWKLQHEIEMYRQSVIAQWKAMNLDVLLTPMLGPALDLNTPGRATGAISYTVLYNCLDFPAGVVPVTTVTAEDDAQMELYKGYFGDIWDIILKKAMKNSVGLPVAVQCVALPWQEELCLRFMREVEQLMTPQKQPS
# Assay: Inhibitory activity against fatty acid amide hydrolase (FAAH)
row,Ki,Compound
1,2.3 nM,CCCCCCCC/C=C\CCCCCCCC(=O)c1nc2ncccc2o1
2,150 nM,CCCCCCCC/C=C\CCCCCCCC(=O)c1nc2ccccc2o1
3,100 nM,CCCCCCCC/C=C\CCCCCCCC(=O)c1ncco1
